One may read the IC50 as the concentration that inhibits the measured activity by half.

The target in this assay is GTPase KRas (Homo sapiens, UniProt P01116, G12D). The experiment in a line: Displacement of Cy5-labelled tracer from biotinylated GDP-loaded human recombinant KRAS G12D mutant (1 to 169 residues) measured after 60 mins by TR-FRET assay. On the technique in general: TR-FRET usually uses a lanthanide donor and a delayed reading to cut background.

`Oc1cc(-c2ncc3c(N4CC5CCC(C4)N5)nc(OCC45CCCN4C(CF)CC5)nc3c2F)c2ccccc2c1` (stereo unspecified): the IC50 was 0.1 nM.
